Legend:
[1] = dosage of 7 mg/m^2; cited from earlier work
[2] = in 96 hrs through human cadaver skin; U.S. Pat. No. 8,449,908; cited from earlier work
[3] = cited from earlier work
[4] = Delivery of THC through human cadaver skin (U.S. Pat. No. 8,449,908); type: in vitro ADME; details: calculated from the cumulative amount in 96 hrs
Protocol: U.S. Pat. No. 8,449,908 provides delivery of the cumulative amount of 10000 ng THC in 96 hrs through the human cadaver skin. This amount represents the flux of 60 ng/cm^2/hr. The patch area can be calculated using following equation: […]
In order to deliver a therapeutic dosage of 5 mg/day of delta-9-THC, a transdermal formulation would need to cover at least […] surface area of the patient's skin. This is an impractical patch size for any transdermal drug delivery system (TDDS).

## CCCCCc1cc(O)c2c(c1)OC(C)(C)[C@@H]1CCC(C)=C[C@@H]21 (relative stereo) [dronabinol, (6aR-trans)-6a,7,8,10a-tetrahydro-6,6,9-trimethyl-3-pentyl-6H-dibenzo[b,d]pyran-1-ol]
[1]
  adverse effects: not induced
[2]
  cumulative amount of THC delivered: 10000 ng
[3]; after oral administration, first pass hepatic metabolism
  share of the administered dose that reaches systemic circulation: 10%-20%
[3]; in vivo
  Alpha half-life: about 4 hours
[4]
  flux: 60 ng/cm^2/hr
